Results reported in BindingDB's records for doi:10.1016/s0968-0896(99)00215-1 (Parke-Davis Pharmaceutical Research, 1999).

Target: T1, Dimer of Gag-Pol polyprotein [489-587] (Human immunodeficiency virus 1, UniProt P12497)
T1 construct: 489-587
Test: Protease Inhibition Assay
Experimental: For determination of IC50 values, HIV-1 protease was added to assay buffer containing inhibitor and the substrate (H-His-Lys-Ala-Arg-Val-Leu- (p-NO2) Phe-Glu-Ala-norleucine-Ser-NH2). The Leu- (p-NO2) Phe bond of the substrate was cleaved by the enzyme, and the substrate and products were separated by reversed-phase HPLC. Absorbance was measured at 220 nm, peak areas were determined, and percentage conversion to product was calculated.

Cc1cc(SC2C(=O)CC(CCc3ccc(O)cc3)(C(C)C)OC2=O)c(C(C)(C)C)cc1CO (stereo not given) [3-{[2-tert-butyl-4-(hydroxymethyl)-5-methylphenyl]sulfanyl}-4-hydroxy-6-[2-(4-hydroxyphenyl)ethyl]-6-(propan-2-yl)-5,6-dihydro-2H-pyran-2-one]
Ki (pH 6.2, 37 °C): 0.17 nM

CCCCCC1(CCc2ccc(O)cc2)CC(=O)C(Sc2cc(C)c(CO)cc2C(C)(C)C)C(=O)O1 (stereo not given) [3-{[2-tert-butyl-4-(hydroxymethyl)-5-methylphenyl]sulfanyl}-4-hydroxy-6-[2-(4-hydroxyphenyl)ethyl]-6-pentyl-5,6-dihydro-2H-pyran-2-one]
IC50 (pH 6.2, 37 °C): 5.9 nM

CCCC1(CCc2ccc(O)cc2)CC(=O)C(Sc2cc(C)c(CO)cc2C(C)(C)C)C(=O)O1 (stereo not given) [3-{[2-tert-butyl-4-(hydroxymethyl)-5-methylphenyl]sulfanyl}-4-hydroxy-6-[2-(4-hydroxyphenyl)ethyl]-6-propyl-5,6-dihydro-2H-pyran-2-one]
IC50 (pH 6.2, 37 °C): 2.6 nM

Cc1cc(SC2C(=O)CC(CCc3ccc(O)cc3)(C3CCC3)OC2=O)c(C(C)(C)C)cc1CO (stereo not given) [3-{[2-tert-butyl-4-(hydroxymethyl)-5-methylphenyl]sulfanyl}-6-cyclobutyl-4-hydroxy-6-[2-(4-hydroxyphenyl)ethyl]-5,6-dihydro-2H-pyran-2-one]
IC50 (pH 6.2, 37 °C): 2.2 nM

Cc1cc(SC2C(=O)CC(CCc3ccc(O)cc3)(C3CCCC3)OC2=O)c(C(C)(C)C)cc1CO (stereo not given) [3-{[2-tert-butyl-4-(hydroxymethyl)-5-methylphenyl]sulfanyl}-6-cyclopentyl-4-hydroxy-6-[2-(4-hydroxyphenyl)ethyl]-5,6-dihydro-2H-pyran-2-one]
IC50 (pH 6.2, 37 °C): 3.1 nM

Cc1cc(SC2C(=O)CC(CCc3ccc(N)cc3)(CC(C)C)OC2=O)c(C(C)(C)C)cc1CO (stereo not given) [6-[2-(4-aminophenyl)ethyl]-3-{[2-tert-butyl-4-(hydroxymethyl)-5-methylphenyl]sulfanyl}-4-hydroxy-6-(2-methylpropyl)-5,6-dihydro-2H-pyran-2-one]
IC50: 2.9 nM

Cc1cc(SC2C(=O)CC(CCc3ccc(N)cc3)(C(C)C)OC2=O)c(C(C)(C)C)cc1CO (stereo not given) [6-[2-(4-aminophenyl)ethyl]-3-{[2-tert-butyl-4-(hydroxymethyl)-5-methylphenyl]sulfanyl}-4-hydroxy-6-(propan-2-yl)-5,6-dihydro-2H-pyran-2-one]
Ki: 0.43 nM

CCCCC1(CCc2ccc(O)cc2)CC(=O)C(Sc2cc(C)c(OCCO)cc2C(C)(C)C)C(=O)O1 (stereo not given) [6-butyl-3-{[2-tert-butyl-4-(2-hydroxyethoxy)-5-methylphenyl]sulfanyl}-4-hydroxy-6-[2-(4-hydroxyphenyl)ethyl]-5,6-dihydro-2H-pyran-2-one]
IC50: 6.4 nM

CCCCC1(CCc2ccc(O)cc2)CC(=O)C(Sc2cc(C)c(CO)cc2C(C)(C)C)C(=O)O1 (stereo not given) [6-butyl-3-{[2-tert-butyl-4-(hydroxymethyl)-5-methylphenyl]sulfanyl}-4-hydroxy-6-[2-(4-hydroxyphenyl)ethyl]-5,6-dihydro-2H-pyran-2-one]
IC50 (pH 6.2, 37 °C): 4.1 nM

Cc1cc(SC2C(=O)CC(CCc3ccc(O)cc3)(C(C)C)OC2=O)c(C(C)(C)C)cc1OCCO (stereo not given) [(3-(2-tert-Butyl-4-(2-hydroxy-ethoxy)-5-methyl-phenylsulfanyl)-4-hydroxy-6-[2-(4-hydroxy-phenyl)-ethyl]-6-isopropyl-5,6-dihydro-pyran-2-one]
IC50: 2.8 nM

Cc1cc(SC2C(=O)CC(CCc3ccc(O)cc3)(C3CC3)OC2=O)c(C(C)(C)C)cc1OCCO (stereo not given) [(3-(2-tert-Butyl-4-(2-hydroxy-ethoxy)-5-methyl-phenylsulfanyl)-6-cyclopropyl-4-hydroxy-6-[2-(4-hydroxy-phenyl)-ethyl]-5,6-dihydro-pyran-2-one]
IC50: 3.8 nM

Cc1cc(SC2C(=O)C[C@](CCc3ccc(O)cc3)(C(C)C)OC2=O)c(C(C)(C)C)cc1CO (stereo not given in full) [(3-(2-tert-Butyl-4-hydroxymethyl-5-methyl-phenylsulfanyl)-4-hydroxy-6-[2-(4-hydroxypheny)-ethyl]-6-isopropyl-5,6-dihydro-pyran-2-one]
Ki: 31 nM

Cc1cc(SC2C(=O)CC(CCc3ccc(O)cc3)(C3CC3)OC2=O)c(C(C)(C)C)cc1CO (stereo not given) [(3-(2-tert-Butyl-4-hydroxymethyl-5-methyl-phenylsulfanyl)-6-cyclopropyl-4-hydroxy-6-[2-(4-hydroxy-phenyl)-ethyl]-5,6-dihydro-pyran-2-one]
IC50 (pH 6.2, 37 °C): 1 nM

Cc1ccc(C(C)(C)C)c(SC2C(=O)CC(CCc3ccc(O)cc3)(C3CCCC3)OC2=O)c1 (stereo not given) [(3-(2-tert-Butyl-5-methyl-phenylsulfanyl)-4-hydroxy-6-[2-(4-hydroxy-phenyl)-ethyl]-6-cyclopentyl-5,6-dihydro-pyran-2-one]
IC50 (pH 6.2, 37 °C): 7.2 nM

Cc1ccc(C(C)(C)C)c(SC2C(=O)CC(CCc3ccc(O)cc3)(C(C)C)OC2=O)c1 (stereo not given) [(3-(2-tert-Butyl-5-methyl-phenylsulfanyl)-4-hydroxy-6-[2-(4-hydroxy-phenyl)-ethyl]-6-isopropyl-5,6-dihydro-pyran-2-one]
IC50 (pH 6.2, 37 °C): 4.6 nM

Cc1ccc(C(C)(C)C)c(SC2C(=O)CC(C)(CCc3ccc(O)cc3)OC2=O)c1 (stereo not given) [(3-(2-tert-Butyl-5-methyl-phenylsulfanyl)-4-hydroxy-6-[2-(4-hydroxy-phenyl)-ethyl]-6-methyl-5,6-dihydro-pyran-2-one]
IC50 (pH 6.2, 37 °C): 9.5 nM

Cc1ccc(C(C)(C)C)c(SC2C(=O)CC(CCc3ccc(O)cc3)(C3CC3)OC2=O)c1 (stereo not given) [(3-(2-tert-Butyl-5-methyl-phenylsulfanyl)-6-cyclopropyl-4-hydroxy-6-[2-(4-hydroxy-phenyl)-ethyl]-5,6-dihydro-pyran-2-one]
IC50 (pH 6.2, 37 °C): 8 nM

Cc1cc(SC2C(=O)C[C@](CCc3ccccc3)(C(C)C)OC2=O)c(C(C)(C)C)cc1CO (stereo partly drawn) [(6R)-3-{[2-tert-butyl-4-(hydroxymethyl)-5-methylphenyl]sulfanyl}-4-hydroxy-6-(2-phenylethyl)-6-(propan-2-yl)-5,6-dihydro-2H-pyran-2-one]
Ki: 160 nM

Cc1cc(SC2C(=O)C[C@](CCc3ccc(N)cc3)(C(C)C)OC2=O)c(C(C)(C)C)cc1CO (stereo partly drawn) [(6R)-6-[2-(4-aminophenyl)ethyl]-3-{[2-tert-butyl-4-(hydroxymethyl)-5-methylphenyl]sulfanyl}-4-hydroxy-6-(propan-2-yl)-5,6-dihydro-2H-pyran-2-one]
Ki: 25 nM

Cc1cc(SC2C(=O)C[C@@](CCc3ccccc3)(C(C)C)OC2=O)c(C(C)(C)C)cc1CO (stereo partly drawn) [(6S)-3-{[2-tert-butyl-4-(hydroxymethyl)-5-methylphenyl]sulfanyl}-4-hydroxy-6-(2-phenylethyl)-6-(propan-2-yl)-5,6-dihydro-2H-pyran-2-one]
Ki: 0.09 nM

Cc1cc(SC2C(=O)C[C@@](CCc3ccc(O)cc3)(C(C)C)OC2=O)c(C(C)(C)C)cc1CO (stereo partly drawn) [(6S)-3-{[2-tert-butyl-4-(hydroxymethyl)-5-methylphenyl]sulfanyl}-4-hydroxy-6-[2-(4-hydroxyphenyl)ethyl]-6-(propan-2-yl)-5,6-dihydro-2H-pyran-2-one]
Ki: 0.09 nM

Cc1cc(SC2C(=O)C[C@@](CCc3ccc(N)cc3)(C(C)C)OC2=O)c(C(C)(C)C)cc1CO (stereo partly drawn) [(6S)-6-[2-(4-aminophenyl)ethyl]-3-{[2-tert-butyl-4-(hydroxymethyl)-5-methylphenyl]sulfanyl}-4-hydroxy-6-(propan-2-yl)-5,6-dihydro-2H-pyran-2-one]
Ki: 0.11 nM

Cc1cc(SC2C(=O)CC(CCc3ccc(O)cc3)(C3CCCCC3)OC2=O)c(C(C)(C)C)cc1CO (stereo not given) [PD 178390 Analog 21]
IC50 (pH 6.2, 37 °C): 2.5 nM

Cc1cc(SC2C(=O)CC(CCc3ccc(O)cc3)(C(C)C)OC2=O)c(C(C)(C)C)cc1O (stereo not given) [PD 178390 Analog 23]
Ki (pH 6.2, 37 °C): 0.03 nM

Cc1cc(SC2C(=O)CC(CCc3ccccc3)(c3ccccc3)OC2=O)c(C(C)(C)C)cc1CO (stereo not given) [PD 178390 Analog 38]
IC50: 6.5 nM
